Laboratory results published in the supplement of paper PMC11061612.

Assays:
Assay in all cases: Bliss excess, mean over the matrix (fraction); higher = more synergy
[1] = tested on: ALL-PO (B-Lymphoblastic Leukemia)
In short: (§1)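 Cell lines grown in DMEM/F12 or RPMI with 10% FBS were plated in 1536-well plates and held 24 hours at 37°C, 5% CO2 before 72 hours of exposure to two-drug dose matrices, with DMSO typically at 0.2%. CellTiter-Glo 2.0 luminescence gave viability, which was converted to inhibition. Vehicle wells were set to 0 and blank wells to 1. Combination Emax is the second-highest inhibition in the matrix, and Bliss excess is the observed combination effect minus the expected EA + EB − EA·EB, where EA and EB are the single-agent effects.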

BE2-M17 (Neuroblastoma) = tested on: BE2-M17 (Neuroblastoma)
In short: as §1

BPH-1 (Non-Cancerous) = tested on: BPH-1 (Non-Cancerous)
In short: as §1

[2] = tested on: HH (T-Cell Non-Hodgkin's Lymphoma)
In short: as §1

[3] = tested on: HeLa (Cervical Carcinoma)
In short: as §1

[4] = tested on: Hs-746T (Gastric Carcinoma)
In short: as §1

[5] = tested on: HuCCT1 (Biliary Tract Carcinoma)
In short: as §1

[6] = tested on: HuH-7 (Hepatocellular Carcinoma)
In short: as §1

[7] = tested on: KMRC-20 (Kidney Carcinoma)
In short: as §1

[8] = tested on: L-428 (Hodgkin's Lymphoma)
In short: as §1

[9] = tested on: LCLC-97TM1 (Non-Small Cell Lung Carcinoma)
In short: as §1

[10] = tested on: LNZTA3WT4 (Low Grade Glioma)
In short: as §1

LOXIMVI (Melanoma) = tested on: LOXIMVI (Melanoma)
In short: as §1

NCI-H2722 (Mesothelioma) = tested on: NCI-H2722 (Mesothelioma)
In short: as §1

[11] = tested on: NUGC-4 (Gastric Carcinoma)
In short: as §1

[12] = tested on: OVCAR-5 (Ovarian Carcinoma)
In short: as §1

[13] = tested on: SAS (Oral Cavity Carcinoma)
In short: as §1

[14] = tested on: TGBC1TKB (Biliary Tract Carcinoma)
In short: as §1

[15] = tested on: WSU-NHL (B-Cell Non-Hodgkin's Lymphoma)
In short: as §1

Structure (SMILES)	Bliss excess [1]	Bliss excess (BE2-M17 (Neuroblastoma))	Bliss excess (BPH-1 (Non-Cancerous))	Bliss excess [2]	Bliss excess [3]	Bliss excess [4]	Bliss excess [5]	Bliss excess [6]	Bliss excess [7]	Bliss excess [8]	Bliss excess [9]	Bliss excess [10]	Bliss excess (LOXIMVI (Melanoma))	Bliss excess (NCI-H2722 (Mesothelioma))	Bliss excess [11]	Bliss excess [12]	Bliss excess [13]	Bliss excess [14]	Bliss excess [15]
CN(C)CCCOc1ccc(-c2ccc3ncc4c(c3c2)n(C2CCOCC2)c(=O)n4C)cn1 [AZD0156] + O=C(c1cc(Cc2n[nH]c(=O)c3ccccc23)ccc1F)N1CCN(C(=O)C2CC2)CC1 [Olaparib] (first compound max 3 µM, partner max 3 µM)	0.0594	0.0515	0.158	-0.0513	-0.0057	0.0802	-0.0012	-0.0107	0.0163	-0.0116	-0.0124	-0.0184	0.0317	-0.017	-0.0473	-0.0123	0.0188	-0.0294	0.403
C=CCn1c(=O)c2cnc(Nc3ccc(N4CCN(C)CC4)cc3)nc2n1-c1cccc(C(C)(C)O)n1 [AZD1775] + C1CN(CCC1(C(=O)N[C@@H](CCO)C2=CC=C(C=C2)Cl)N)C3=NC=NC4=C3C=CN4 [Capivasertib] (first compound max 3 µM, partner max 3 µM)	-0.0134	-0.0406	-0.0371	-0.144	-0.0168	0.031		0.0263	-0.0646	-0.0138	-0.0545	-0.0111	0.0764	-0.0603	-0.14	-0.0923	-0.0206	-0.0061	-0.0271
C=CCn1c(=O)c2cnc(Nc3ccc(N4CCN(C)CC4)cc3)nc2n1-c1cccc(C(C)(C)O)n1 [AZD1775] + CCc1c2c(nc3ccc(O)cc13)-c1cc3c(c(=O)n1C2)COC(=O)[C@]3(O)CC [SN-38] (first compound max 1 µM, partner max 0.3 µM)				-0.0696			-0.0281					-0.0414	-0.0862			-0.0215	0.0334	-0.0491	-0.0306
CN(CCO)CC[C@H](CSc1ccccc1)Nc1ccc(S(=O)(=O)NC(=O)c2ccc(N3CCC([C@@H](O)c4ccccc4-c4ccc(Cl)cc4)CC3)cc2)cc1S(=O)(=O)C(F)(F)F [AZD4320] + CS(=O)(=O)CCNCc1ccc(-c2ccc3ncnc(Nc4ccc(OCc5cccc(F)c5)c(Cl)c4)c3c2)o1 [Lapatinib] (first compound max 1 µM, 7x7, partner max 10 µM)				0.0112			-0.0052					0.0677	0.0113			-0.0031	0.0214	0.0019	0.0183
Cc1c2c(nn1C)CSCc1cc(n(C)n1)CSc1cc(c3ccccc3c1)OCCCc1c(C(=O)O)n(C)c3c-2c(Cl)ccc13 [AZD5991] + CC(=O)O[C@H]1C(=O)[C@@]2(C)[C@H]([C@H](OC(=O)c3ccccc3)[C@]3(O)C[C@H](OC(=O)[C@H](O)[C@@H](NC(=O)c4ccccc4)c4ccccc4)C(C)=C1C3(C)C)[C@]1(OC(C)=O)CO[C@@H]1C[C@@H]2O [Paclitaxel] (first compound max 1 µM, 7x7, partner max 3 µM)				0.0737			-0.0164					-0.0447	-0.0081			-0.0389	0.0067	-0.0892	-0.0565
Cc1c2c(nn1C)CSCc1cc(n(C)n1)CSc1cc(c3ccccc3c1)OCCCc1c(C(=O)O)n(C)c3c-2c(Cl)ccc13 [AZD5991] + Nc1ccn([C@@H]2O[C@H](CO)[C@@H](O)C2(F)F)c(=O)n1 [Gemcitabine] (first compound max 1 µM, 7x7, partner max 0.3 µM)				-0.0369			-0.0171					0.0625	-0.0338			-0.0442	-0.0223	0.0006	-0.0514
C[C@@H]1COCCN1c1cc(C2([S@](C)(=N)=O)CC2)nc(-c2ccnc3[nH]ccc23)n1 [AZD6738] + C1CC(C1)(C(=O)[O-])C(=O)[O-].N.N.[Pt+2] [Carboplatin] (first compound max 10 µM, 7x7, partner max 10 µM)				-0.0016			-0.0477					-0.0459	-0.0438			-0.0347	-0.0459	-0.0375	-0.054
C[C@@H](Nc1cc(F)cc(F)c1)c1cc(C(=O)N(C)C)cc2c(=O)cc(N3CCOCC3)oc12 [AZD8186] + C1CN(CCC1(C(=O)N[C@@H](CCO)C2=CC=C(C=C2)Cl)N)C3=NC=NC4=C3C=CN4 [AZD5363] (first compound max 10 µM, 7x7, partner max 10 µM)				-0.125			-0.0171					-0.0615	-0.0495			-0.0442	-0.0226	0.0539	-0.0018
C[C@@H](Nc1cc(F)cc(F)c1)c1cc(C(=O)N(C)C)cc2c(=O)cc(N3CCOCC3)oc12 [AZD8186] + CC(=O)c1c(C)c2cnc(Nc3ccc(N4CCNCC4)cn3)nc2n(C2CCCC2)c1=O [Palbociclib] (first compound max 10 µM, 7x7, partner max 10 µM)				0.0853			0.0428					0.111	0.0909			0.0014	-0.0006	0.0239	-0.0144
C[C@@H](Oc1cc(-c2cnn(C3CCNCC3)c2)cnc1N)c1c(Cl)ccc(F)c1Cl [Crizotinib] + CC1=C(C(=CC=C1)Cl)NC(=O)C2=CN=C(S2)NC3=CC(=NC(=N3)C)N4CCN(CC4)CCO [Dasatinib] (first compound max 10 µM, 7x7, partner max 2 µM)				-0.0138			-0.0274					0.0429	0.0145			0.0338	-0.0059	0.0435	0.0202
C[C@@H](Oc1cc(-c2cnn(C3CCNCC3)c2)cnc1N)c1c(Cl)ccc(F)c1Cl [Crizotinib] + Cn1cnc2c(F)c(Nc3ccc(Br)cc3Cl)c(C(=O)NOCCO)cc21 [Selumetinib] (first compound max 10 µM, 7x7, partner max 10 µM)				-0.0238			-0.0516					-0.0285	-0.0068			-0.0324	-0.0073	-0.0534	-0.0382
CS(=O)(=O)CCNCc1ccc(-c2ccc3ncnc(Nc4ccc(OCc5cccc(F)c5)c(Cl)c4)c3c2)o1 [Lapatinib] + Cn1cnc2c(F)c(Nc3ccc(Br)cc3Cl)c(C(=O)NOCCO)cc21 [Selumetinib] (first compound max 10 µM, 7x7, partner max 10 µM)				-0.0496			0.0208					-0.0268	-0.0701			-0.0161	-0.049	0.034	-0.0093
CS(=O)(=O)CCNCc1ccc(-c2ccc3ncnc(Nc4ccc(OCc5cccc(F)c5)c(Cl)c4)c3c2)o1 [Lapatinib] + NC1(c2ccc(-c3nc4ccn5c(=O)[nH]nc5c4cc3-c3ccccc3)cc2)CCC1 [MK-2206] (first compound max 10 µM, 7x7, partner max 10 µM)				-0.0002			-0.018					-0.0334	0.043			-0.0101	0.0044	0.0079	-0.0237
O=C(c1cc(Cc2n[nH]c(=O)c3ccccc23)ccc1F)N1CCN(C(=O)C2CC2)CC1 [Olaparib] + CC1(C)CCC(CN2CCN(c3ccc(C(=O)NS(=O)(=O)c4ccc(NCC5CCOCC5)c([N+](=O)[O-])c4)c(Oc4cnc5[nH]ccc5c4)c3)CC2)=C(c2ccc(Cl)cc2)C1 [Venetoclax] (first compound max 10 µM, 7x7, partner max 1 µM)				-0.0246			-0.0478					-0.0739	0.0029			-0.061	-0.0168	-0.0666	0.0238
O=C(c1cc(Cc2n[nH]c(=O)c3ccccc23)ccc1F)N1CCN(C(=O)C2CC2)CC1 [Olaparib] + CN(CC[C@H](CSC1=CC=CC=C1)NC2=C(C=C(C=C2)S(=O)(=O)NC(=O)C3=CC=C(C=C3)N4CCC(CC4)[C@H](C5=CC=CC=C5C6=CC=C(C=C6)Cl)O)S(=O)(=O)C(F)(F)F)CCO [AZD4320] (first compound max 10 µM, 7x7, partner max 1 µM)				-0.0133			-0.0518					-0.0332	0.0022			-0.0414	-0.0318	-0.049	0.0345
O=C(c1cc(Cc2n[nH]c(=O)c3ccccc23)ccc1F)N1CCN(C(=O)C2CC2)CC1 [Olaparib] + COc1nnc2ccc(N3CCC(c4ccc(OCCN5CCN(C)C(=O)[C@H]5C)cc4)CC3)nn12 [AZD5153] (first compound max 10 µM, 7x7, partner max 1 µM)				-0.0066			-0.0637					-0.0516	-0.0792			-0.0584	-0.0771	-0.0322	-0.06
O=C(c1cc(Cc2n[nH]c(=O)c3ccccc23)ccc1F)N1CCN(C(=O)C2CC2)CC1 [Olaparib] + Cc1c2c(nn1C)CSCc1cc(n(C)n1)CSc1cc(c3ccccc3c1)OCCCc1c(C(=O)O)n(C)c3c-2c(Cl)ccc13 [AZD5991] (first compound max 10 µM, 7x7, partner max 1 µM)				-0.0339			-0.0367					-0.0468	-0.0409			-0.0729	-0.0344	-0.0334	0.0217
CCc1c2c(nc3ccc(O)cc13)-c1cc3c(c(=O)n1C2)COC(=O)[C@]3(O)CC [SN-38] + O=C(c1cc(Cc2n[nH]c(=O)c3ccccc23)ccc1F)N1CCN(C(=O)C2CC2)CC1 [Olaparib] (first compound max 0.3 µM, 7x7, partner max 10 µM)	0.0576	0.0082	0.0501	-0.0275	0.0232		0.0046			0.0367		-0.0114	0.0214	0.0188		-0.0161	0.0501	0.0009	0.044
Cc1nc(-c2cn3c(n2)-c2ccc(-c4cnn(C(C)(C)C(N)=O)c4)cc2OCC3)n(C(C)C)n1 [Taselisib] + O=C(Nc1ccc2[nH]nc(-c3ccncc3)c2c1)[C@@H]1CCN(CC(=O)N2CCN(c3ccc(-c4ncccn4)cc3)CC2)C1 [SCH772984] (first compound max 10 µM, 7x7, partner max 5 µM)				0.0858			0.072					-0.0617	0.091			0.0022	0.0999	0.0043	0.037
